Measured values reported in patent publication US20260083703A1, “INDOLINE DERIVATIVES AS SEROTONERGIC AGENTS USEFUL FOR THE TREATMENT OF DISORDERS RELATED THERETO” (MINDSET PHARMA INC., priority 2022, published 2026).
Several values for one entry are separate records, joined by “and”; a condition that tells them apart may be missing. Identical values can stand only once.

Tests used:
[1] = biological target: T1, human 5-HT2A (h5-HT2A) receptor (Homo sapiens, UniProt P28223); test: FLIPR assay, human 5-HT2A, agonist mode; assay type: cell-based
T1 construct: expressed in transfected cells; grown under G418 and hygromycin B selection
T1 sequence (P28223 whole entry): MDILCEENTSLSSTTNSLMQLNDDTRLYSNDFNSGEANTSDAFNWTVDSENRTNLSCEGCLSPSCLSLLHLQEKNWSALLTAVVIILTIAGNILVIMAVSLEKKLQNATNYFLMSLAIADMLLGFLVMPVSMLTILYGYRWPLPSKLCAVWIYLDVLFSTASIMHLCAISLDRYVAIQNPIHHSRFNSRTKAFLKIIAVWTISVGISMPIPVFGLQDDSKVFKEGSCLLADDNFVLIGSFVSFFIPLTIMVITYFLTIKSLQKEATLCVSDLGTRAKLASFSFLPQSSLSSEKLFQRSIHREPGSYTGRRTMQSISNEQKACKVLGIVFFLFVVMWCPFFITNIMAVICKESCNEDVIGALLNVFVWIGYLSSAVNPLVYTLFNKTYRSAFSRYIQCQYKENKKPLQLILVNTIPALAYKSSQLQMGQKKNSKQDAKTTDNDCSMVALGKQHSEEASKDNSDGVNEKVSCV
Description: I. Assessment of the Effect of Exemplary Compounds of Formula I Targeting on Human 5-HT2A (h5-HT2A) Receptor Under Agonist Mode:
I.c. Experimental Methods and Procedures: • 1. Cells were cultured in cell culture medium (DMEM containing 10% FBS, 1×penicillin-streptomycin 300 μg/ml G418 and 100 μg/ml hygromycin B) at 37° C., 5% (v/v) CO2. • 2. One day before the assays, the cells were detached using TrypLE™ Express and cells were counted using cell counter. Only cells with >85% viability were used for the assay. • 3. 20000 cells/well were seeded in 30 μl/well culture medium to a 384-well cell plate and cells were incubated overnight at 37° C., 5% (v/v) CO2. • 4. On the assay day, 2×dye solution was prepared following the manual of the FLIPR® Calcium 6 Assay Kit: i. The dye was diluted with assay buffer (20 mM HEPES in 1×HBSS, PH7.4); ii. Probenecid was added to the final concentration of 5 mM; iii. Vortex vigorously for 1-2 minutes. • 5. Medium was removed from cell plate by flicking the cell plate on towel papers. • 6. 10 μl of assay buffer and 10 μl of 2×dye solution was added to each well of the cell plate. • 7. The cell plate was placed on plate shaker, the plate was agitated at 600 rpm for 2 minutes. The plate was incubated at 37° C. for 2 hours followed by additional 15-minute incubation at 25° C. • 8. 3×compound in assay buffer was prepared: a. Reference compounds were diluted to required concentration with DMSO. The compounds were added to a 384-well compound plate; b. Serial dilutions were performed; c. 10 mM test compounds were added to the compound plate, and 3-fold serial dilutions were performed. d. Transfer 60 nl/well of compounds from source plate to a 384-well compound plate (Corning, 3657) by using an Echo; e. Add 20 μl/well assay buffer to the compound plate; f. Mix the plate on plate shaker for 2 mins; • 9. The cell plate, compound plate and tips were put into FLIPR, 10 μl of 3× compound was transferred to the cell plate per well with FLIPR.
• i. The normalized fluorescence reading (RFU) was calculated as shown below, where Fmax and Fmin stand for maximum and minimum of calcium signal during defined time window: RFU=Fmax−Fmin. • ii. Calculate the percentage activation using following equation:
[formula] • Iii. Calculate EC50 by fitting % activation against log of compound concentrations with Hill equation using XLfit.

[2] = Liver microsomes stability, rat; details: for CLint scaled at 2 μM / half-life at 2 μM / microsomal CLint at 2 μM: rat liver microsomes
[3] = Liver microsomes stability, human; details: for Predicted hepatic CL / Remaining Percentage / CLint scaled at 2 μM / half-life at 2 μM / microsomal CLint at 2 μM: human; for CLint scaled at 2 μM / half-life at 2 μM / microsomal CLint at 2 μM: pooled human liver microsomes
[4] = Liver microsomes stability, mouse; details: for CLint scaled at 2 μM / half-life at 2 μM / microsomal CLint at 2 μM: male, microsomes
Male, C57BL/6J mice = test: Mouse head twitch; assay type: in vivo; details: for other behavioural and somatic signs accompanying head twitches: psilocybin at 3 and 10 mg/kg, 5-MeO DMT over 3-30 mg/kg
Description: The effect of different doses of representative compounds of Formula I are evaluated on head-twitch response (HTR) and other behavioural responses as behavior-based models of psychedelic activity.
Male, C57BL/6J mice (body weight range 20-30 g) were dosed with the appropriate dose of test article, and following a 1-minute pre-treatment time, placed in individual observation chambers. Animals were visually assessed for the incidence head twitches continuously over a 1 hr period. Head twitches were defined as a rapid jerk of the head which was not elicited by an external tactile stimulus (Come and Pickering, Psychopharmacologia, 1967, 11(1): 65-78). Each head twitch was individually counted by a trained observer, and the data expressed as the mean±SEM of 6-10 mice per group. Mice were used in a single experiment only.

COc1cc2c(cc1OC)C(C[C@H]1CCCN1C)CN2 (stereo partly drawn) [(R) I-81, 5,6-Dimethoxy-3-(((R)-I-methylpyrrolidin-2-yl)methyl)indoline]
5-HT2A (FLIPR) RFU@10 μM [1]: 294 RFU

CN1CCC[C@@H]1C[C@H]1CNc2ccc(F)cc21 [(R),(R)-I-47, (R)-5-fluoro-3-(((R)-I-methylpyrrolidin-2-yl)methyl)indoline]
EC50 [1]: 91 nM
5-HT2A (FLIPR) RFU@10 μM [1]: 787 RFU
Predicted hepatic CL [2]: 45.31 mL/min/kg
Remaining Percentage ([2]; With NADPH, 0 min): 100.00%
Remaining Percentage ([2]; With NADPH, 30 min): 5.12%
Remaining Percentage ([2]; With NADPH, 60 min): 1.45%
Remaining Percentage ([2]; Without NADPH, 0 min): 100.00%
Remaining Percentage ([2]; Without NADPH, 30 min): 108.30%
Remaining Percentage ([2]; Without NADPH, 60 min): 100.00%
CLint scaled at 2 μM [2]: 253 mL/min/kg
half-life at 2 μM [2]: 0.164 h
microsomal CLint at 2 μM [2]: 141 µL/min/mg
Predicted hepatic CL [3]: 2.74 mL/min/kg
Remaining Percentage ([3]; With NADPH, 0 min): 100.00%
Remaining Percentage ([3]; With NADPH, 30 min): 108.74%
Remaining Percentage ([3]; With NADPH, 60 min): 92.73%
Remaining Percentage ([3]; Without NADPH, 0 min): 100.00%
Remaining Percentage ([3]; Without NADPH, 30 min): 102.35%
Remaining Percentage ([3]; Without NADPH, 60 min): 95.13%
CLint scaled at 2 μM [3]: 3.15 mL/min/kg
half-life at 2 μM [3]: 9.19 h
microsomal CLint at 2 μM [3]: 2.51 µL/min/mg
Predicted hepatic CL [4]: 13.24 mL/min/kg
Remaining Percentage ([4]; With NADPH, 0 min): 100.00%
Remaining Percentage ([4]; With NADPH, 30 min): 114.03%
Remaining Percentage ([4]; With NADPH, 60 min): 89.90%
Remaining Percentage ([4]; Without NADPH, 0 min): 100.00%
Remaining Percentage ([4]; Without NADPH, 30 min): 114.71%
Remaining Percentage ([4]; Without NADPH, 60 min): 87.16%
CLint scaled at 2 μM [4]: 15.5 mL/min/kg
half-life at 2 μM [4]: 6.51 h
microsomal CLint at 2 μM [4]: 3.55 µL/min/mg

[2H]C([2H])([2H])N1CCC[C@@H]1CC1CNc2cc(OC)c(OC)cc21 (stereo partly drawn) [(R)-I-82, 5,6-dimethoxy-3-(((R)-I-(methyl-d3)pyrrolidin-2-yl)methyl)indoline]
EC50 [1]: 1560 nM
5-HT2A (FLIPR) RFU@10 μM [1]: 479 RFU

COc1cccc2c1C(C[C@H]1CCCN1C)CN2 (stereo partly drawn) [(R)-I-94, 4-Methoxy-3-(((R)-I-methylpyrrolidin-2-yl)methyl)indoline]
EC50 [1]: 9 nM
5-HT2A (FLIPR) RFU@10 μM [1]: 545 RFU
Predicted hepatic CL [2]: 19.77 mL/min/kg
Remaining Percentage ([2]; With NADPH, 0 min): 100.00%
Remaining Percentage ([2]; With NADPH, 30 min): 84.38%
Remaining Percentage ([2]; With NADPH, 60 min): 59.71%
Remaining Percentage ([2]; Without NADPH, 0 min): 100.00%
Remaining Percentage ([2]; Without NADPH, 30 min): 104.88%
Remaining Percentage ([2]; Without NADPH, 60 min): 96.34%
CLint scaled at 2 μM [2]: 30.8 mL/min/kg
half-life at 2 μM [2]: 1.34 h
microsomal CLint at 2 μM [2]: 17.2 µL/min/mg
Predicted hepatic CL [3]: 5.63 mL/min/kg
Remaining Percentage ([3]; With NADPH, 0 min): 100.00%
Remaining Percentage ([3]; With NADPH, 30 min): 100.93%
Remaining Percentage ([3]; With NADPH, 60 min): 83.11%
Remaining Percentage ([3]; Without NADPH, 0 min): 100.00%
Remaining Percentage ([3]; Without NADPH, 30 min): 108.38%
Remaining Percentage ([3]; Without NADPH, 60 min): 98.20%
CLint scaled at 2 μM [3]: 7.74 mL/min/kg
half-life at 2 μM [3]: 3.74 h
microsomal CLint at 2 μM [3]: 6.17 µL/min/mg
Predicted hepatic CL [4]: >84.35 mL/min/kg
Remaining Percentage ([4]; With NADPH, 0 min): 100.00%
Remaining Percentage ([4]; With NADPH, 30 min): 0.84%
Remaining Percentage ([4]; With NADPH, 60 min): 0.29%
Remaining Percentage ([4]; Without NADPH, 0 min): 100.00%
Remaining Percentage ([4]; Without NADPH, 30 min): 109.64%
Remaining Percentage ([4]; Without NADPH, 60 min): 106.02%
CLint scaled at 2 μM [4]: > 1340 mL/min/kg
half-life at 2 μM [4]: < 0.0752 h
microsomal CLint at 2 μM [4]: > 307 µL/min/mg

COc1cccc2c1NCC2C[C@H]1CCCN1C (stereo partly drawn) [(R)-I-95, 7-Methoxy-3-(((R)-I-methylpyrrolidin-2-yl)methyl)indoline]
5-HT2A (FLIPR) RFU@10 μM [1]: 321 RFU

COc1ccc2c(c1)C(C[C@H]1CCCN1)CN2 (stereo partly drawn) [(R)-I-165, 5-Methoxy-3-(((R)-pyrrolidin-2-yl)methyl)indoline]
EC50 [1]: 57 nM
5-HT2A (FLIPR) RFU@10 μM [1]: 1,318 RFU
Predicted hepatic CL [2]: 31.82 mL/min/kg
Remaining Percentage ([2]; With NADPH, 0 min): 100.00%
Remaining Percentage ([2]; With NADPH, 30 min): 53.50%
Remaining Percentage ([2]; With NADPH, 60 min): 28.43%
Remaining Percentage ([2]; Without NADPH, 0 min): 100.00%
Remaining Percentage ([2]; Without NADPH, 30 min): 106.00%
Remaining Percentage ([2]; Without NADPH, 60 min): 119.73%
CLint scaled at 2 μM [2]: 75.1 mL/min/kg
half-life at 2 μM [2]: 0.551 h
microsomal CLint at 2 μM [2]: 41.9 µL/min/mg
Predicted hepatic CL [3]: 0.00 mL/min/kg
T1/2 ([3]; human liver microsomes, 2 μM): ∞
Remaining Percentage ([3]; With NADPH, 0 min): 100.00%
Remaining Percentage ([3]; With NADPH, 30 min): 111.72%
Remaining Percentage ([3]; With NADPH, 60 min): 114.92%
Remaining Percentage ([3]; Without NADPH, 0 min): 100.00%
Remaining Percentage ([3]; Without NADPH, 30 min): 99.07%
Remaining Percentage ([3]; Without NADPH, 60 min): 85.51%
Predicted hepatic CL [4]: 37.78 mL/min/kg
Remaining Percentage ([4]; With NADPH, 0 min): 100.00%
Remaining Percentage ([4]; With NADPH, 30 min): 90.44%
Remaining Percentage ([4]; With NADPH, 60 min): 63.99%
Remaining Percentage ([4]; Without NADPH, 0 min): 100.00%
Remaining Percentage ([4]; Without NADPH, 30 min): 100.70%
Remaining Percentage ([4]; Without NADPH, 60 min): 117.77%
CLint scaled at 2 μM [4]: 65.1 mL/min/kg
half-life at 2 μM [4]: 1.55 h
microsomal CLint at 2 μM [4]: 14.9 µL/min/mg

CN1CCC[C@@H]1C[C@@H]1CNc2ccc(F)cc21 [(S),(R)-I-47, (S)-5-fluoro-3-(((R)-I-methylpyrrolidin-2-yl)methyl)indoline]
EC50 [1]: 76 nM
5-HT2A (FLIPR) RFU@10 μM [1]: 797 RFU

COc1ccc2c(c1)C(C[C@@H]1CCCN1C)CN2 (stereo partly drawn) [(S)-I-54, 5-Methoxy-3-(((S)-I-methylpyrrolidin-2-yl)methyl)indoline]
5-HT2A (FLIPR) RFU@10 μM [1]: 444 RFU

COc1ccc2[nH]cc(CCN(C)C)c2c1 [Compound 5-MeO-DMT]
head twitch response (mean head twitches over 1 hr) (Male, C57BL/6J mice; 1 mg/kg SC): 3.0
head twitch response (mean head twitches over 1 hr) (Male, C57BL/6J mice; 3 mg/kg SC): 4.2
head twitch response (mean head twitches over 1 hr) (Male, C57BL/6J mice; 10 mg/kg SC): 7.8
head twitch response (mean head twitches over 1 hr) (Male, C57BL/6J mice; 30 mg/kg SC): 12.3
head twitch response over the dose range tested (Male, C57BL/6J mice; SC, psilocybin 0.1-10, 5-MeO DMT 1-30, (R)-I-54 1-60 mg/kg): monotonic increase in head twitches
other behavioural and somatic signs accompanying head twitches (Male, C57BL/6J mice; SC): other behavioural signs associated with 5-HT syndrome (forepaw treading, straub tail, body twitches, backwards walking) emerged

CN(C)CCc1c[nH]c2ccccc12 [DMT, N,N-dimethyltryptamine, reference compound]
5-HT2A (FLIPR) RFU@10 μM [1]: 381 RFU

CN(C)CCc1c[nH]c2cccc(O)c12 [Psilocin, reference compound]
5-HT2A (FLIPR) RFU@10 μM [1]: 416 RFU and 308 RFU

CN(C)CCc1c[nH]c2cccc(OP(=O)(O)O)c12 [Psilocybin]
head twitch response (mean head twitches over 1 hr) (Male, C57BL/6J mice; 0.1 mg/kg SC): 4.8
head twitch response (mean head twitches over 1 hr) (Male, C57BL/6J mice; 0.3 mg/kg SC): 6.3
head twitch response (mean head twitches over 1 hr) (Male, C57BL/6J mice; 1 mg/kg SC): 16.3
head twitch response (mean head twitches over 1 hr) (Male, C57BL/6J mice; 3 mg/kg SC): 7.8
head twitch response (mean head twitches over 1 hr) (Male, C57BL/6J mice; 10 mg/kg SC): 5.5
dose of peak head twitch response (Male, C57BL/6J mice; SC): 1 mg/kg
other behavioural and somatic signs accompanying head twitches (Male, C57BL/6J mice; SC): decreased locomotion and decreased core body temperature
